Source: US8012971B2, “Therapeutic agent for chronic obstructive pulmonary disease” (Dainippon Sumitomo Pharma Co., Ltd., priority 2005, dated 2011)

What was measured:
Format in all cases: in vivo
[1] = system: Guinea Pig Chronic Obstructive Pulmonary Disease (COPD) Model; experiment: Histological investigations of lung in guinea pig COPD model
Method: (§1) An evaluation was carried out as follows according to a report of Kosuke MORIZUMI, Junichi FUCHIGAMI et al., 2002, The 75th Annual Meeting of the Japanese Pharmacological Society (2002) Abstract No. P-259, “Study of a chronic obstructive pulmonary disease-Effects of theophylline on respiratory function and lung function of guinea pigs in an exposure of cigarette smoke.”
(§2) Male Hartley strain guinea pigs (purchased from Japan SLC, Inc.) were taken in a cigarette exposure holder (RMH-TUBES, manufactured by Muenster Ltd.) to secure them to an exposure chamber (Flow-past type nose-only inhalation chamber, manufactured by Muenster Ltd.), and allowed to inhale cigarette smoke (Hi-Lite, manufactured by Japan Tobacco Inc.) for 60 minutes per day for 5 days in a week, totally 4 weeks using a smoking exposure equipment (Hamburg II, manufactured by Borgwaldt Technik), while the exposure was carried out for 4 days in the 4th week. • (2) Drug Administrations
(§3) Each 0.5% MC suspension of a test drug was orally administered daily in 5 ml/weight (kg) once a day for 25 days from the first day of the exposure. To a sham-exposure group and a control group was orally administered a 0.5% MC suspension in a similar manner. Any oral administrations were carried out 0.5 to 1 hours before exposures on a cigarette-smoke-exposure day or after measurements when measuring respiratory functions. A drug was not administered on the day for measurement of respiratory functions after finishing the 4th week of the exposure. • (3) Measurements of Airway Resistance
After collection of BALF, trachea and lung were isolated. The ligation site of the left lung was opened, injected neutral formalin buffer into trachea, bronchi and lung at the pressure of 20 cm H2O via cannula fixed on the side of the lung, and the lung tissue was extended to be fixed. According to a conventional method, tissue section samples were produced using posterior lobe of the left lung and hematoxylin-eosin (HE) stain was carried out. Any other lung tissues were stored in neutral formalin buffers. Drug efficacies of the produced tissue samples were evaluated by scoring tissue changes under the microscope. The criteria of scores were shown as follows: −: none, ±: minimal, +: mild, ++: moderate, +++: severe. Each quantification was calculated as 0, 1, 2, 3, 4.

[2] = system: Guinea Pig Chronic Obstructive Pulmonary Disease (COPD) Model; experiment: Airway resistance (sRaw) in guinea pig COPD model (cigarette smoke exposure); conditions: for Specific airway resistance (sRaw) % increase from pre value: 1 week of cigarette smoke exposure, mean ± SEM of 8 animals
Method: as §1, §2, §3
Specific airway resistances (sRaw) in guinea pigs were measured during awakening by double-flow plethysmography using general respiratory function analysis system (PULMOS-I, manufactured by M•I•P•S Corp.). Measurements were carried out before the exposure and on the day after finishing the 1st, 2nd, 3rd and 4th weeks of the exposure. Each 100 breathings of respiratory functions were individually measured, and the average values were obtained as measured values. A rate of change of airway resistances was calculated by the following equation. Rate of change of each measured week (%)=100×(a measured value on each measured date−a measured value before starting exposures of cigarette smoke)/a measured value before starting exposures of cigarette smoke

[3] = system: Guinea Pig Chronic Obstructive Pulmonary Disease (COPD) Model; experiment: Inflammatory cells in bronchoalveolar fluid in guinea pig COPD model; conditions: for Cell number in BALF, Macrophage / Cell number in BALF, Neutrophil / Cell number in BALF, Total: mean ± SEM of 8 animals
Method: as §1, §2, §3
After measuring lung functions, animals were exsanguinated to death and opened the thorax, ligated the left bronchial bifurcation, and then injected saline (2.5 mL) into the right lung and aspirated the same via fixed cannula on measuring lung functions repeatedly in twice (totally 5 mL), and the recovery solution was obtained as a bronchoalveolar lavage fluid (BALF). BALF was centrifuged (230×g, 4° C., for 10 minutes) to give cell pellets. The pellets were suspended in saline (0.5 mL), and to a part of the suspension was added Turk solution (manufactured by Wako Pure Chemical Industries, Ltd.) so as to dilute 10 to 20 folds. Leukocyte numbers per 0.1 μL were measured by a blood cell counting chamber and leukocyte numbers per 1 μL were calculated. Cell suspensions were prepared again, smears were prepared using about 2000 to 3000 total cell numbers, May-Grunwald-Giemsa stain was carried out, leukocyte numbers were counted under the microscope, a ratio of each leukocyte number to total leukocyte number was obtained, and each cell number per 1 μL was calculated based on the ratio. Results are shown in each cell number per 1 μL.

[4] = system: Guinea Pig Chronic Obstructive Pulmonary Disease (COPD) Model; experiment: Lung functions (FRC, RV) in guinea pig COPD model; conditions: for Functional residual capacity (FRC) / Residual volume (RV): after 4th week of exposure, mean ± SEM of 8 animals
Method: as §1, §2, §3
After measuring airway resistances in the 4th week, animals were cut open their tracheas under urethane-anesthetizing ([…], i.p.), cannulated on the side of lung, fixed by ligation, and measured residual volumes (RV) and functional residual capacities (FRC) by lung functions measuring system (Biosystem for maneuver, manufactured by Buxco Electronics).

[5] = 30 mg/kg/day for 25 days, 8 animals
[6] = groups of 10 mg/kg and 30 mg/kg, result in words

## CNC(=O)NCCn1c(-c2ccc(N3CCOCC3)cc2)csc1=Nc1cccc(F)c1 [SMP-028, N-{2-[2-[(3-fluorophenyl)imino]-4-(4-morpholinophenyl)-thiazol-3(2H)-yl]ethyl}-N′-methylurea]
[1]; [5]
  Number of animals with grade ++ (moderate): D. Accumulation, foamy/macrophage-like cell, alveolus: 0
  Number of animals with grade ++ (moderate): E. Cellular infiltration, neutrophil, alveolus: 0
  Number of animals with grade +++ (severe): A. Hyperplasia, epithelial cell, bronchus: 0
  Number of animals with grade +++ (severe): B. Cellular exudation, neutrophil/eosinophil, lumen, bronchiole: 0
  Number of animals with grade +++ (severe): C. Thickening, alveolar wall: 0
  Number of animals with grade +++ (severe): D. Accumulation, foamy/macrophage-like cell, alveolus: 0
  Number of animals with grade +++ (severe): E. Cellular infiltration, neutrophil, alveolus: 0
  Number of animals with grade ± (minimal): A. Hyperplasia, epithelial cell, bronchus: 0
  Number of animals with grade ± (minimal): B. Cellular exudation, neutrophil/eosinophil, lumen, bronchiole: 0
  Number of animals with grade ± (minimal): C. Thickening, alveolar wall: 2
  Number of animals with grade ± (minimal): D. Accumulation, foamy/macrophage-like cell, alveolus: 3
  Number of animals with grade ± (minimal): E. Cellular infiltration, neutrophil, alveolus: 0
  Number of animals with grade − (none): A. Hyperplasia, epithelial cell, bronchus: 8
  Number of animals with grade − (none): B. Cellular exudation, neutrophil/eosinophil, lumen, bronchiole: 8
  Number of animals with grade − (none): C. Thickening, alveolar wall: 5
  Number of animals with grade − (none): D. Accumulation, foamy/macrophage-like cell, alveolus: 3
  Number of animals with grade − (none): E. Cellular infiltration, neutrophil, alveolus: 8
[1]; [6]
  accumulation of foamy cells/macrophage-like cells within the alveoli and thickening of the alveolar wall: tended to be suppressed
[1]; scores 0-4 for grades − to +++, result in words
  scored pathological findings (FIG. 2) relative to control group: tended to be dose-dependently suppressed
[2]; 10 mg/kg/day oral
  Specific airway resistance (sRaw) % increase from pre value: 25.54 ± 10.91%
[2]; 30 mg/kg/day oral
  Specific airway resistance (sRaw) % increase from pre value: 15.02 ± 4.07%
[2]; [6]
  increases of airway resistance by cigarette smoking stimulation: tended to be suppressed
[3]; 10 mg/kg/day oral
  Cell number in BALF, Macrophage: 2506 ± 313 ^NS cells/μL
  Cell number in BALF, Neutrophil: 1114 ± 193 ^NS cells/μL
  Cell number in BALF, Total: 4044 ± 419 ^NS cells/μL
[3]; 30 mg/kg/day oral
  Cell number in BALF, Macrophage: 2497 ± 483 ^NS cells/μL
  Cell number in BALF, Neutrophil: 772 ± 277 ^NS cells/μL
  Cell number in BALF, Total: 3897 ± 783 ^NS cells/μL
[3]; [6]
  infiltrations of the inflammatory cells in the airway: tended to be suppressed
[4]; 10 mg/kg/day oral
  Functional residual capacity (FRC): 7.213 ± 0.374 ^NS mL
  Residual volume (RV): 3.236 ± 0.537 ^NS mL
[4]; 30 mg/kg/day oral
  Functional residual capacity (FRC): 7.066 ± 0.353 ^NS mL
  Residual volume (RV): 2.649 ± 0.649 ^NS mL
[4]; [6]
  increases of functional residual capacity (FRC) and residual volume (RV): tended to be suppressed
